Assay results: paper PMC2783186 (Journal of medicinal chemistry, 2009)
pIC50: −log10 of the molar value.

Key:
PHOSPHO1 = target: T1, PHOSPHO1 (Homo sapiens, UniProt Q8TCT1); assay: PHOSPHO1 counterscreen; assay type: biochemical; conditions: read-out: Inhibition of PHOSPHO1
T1 sequence (Q8TCT1 1-267): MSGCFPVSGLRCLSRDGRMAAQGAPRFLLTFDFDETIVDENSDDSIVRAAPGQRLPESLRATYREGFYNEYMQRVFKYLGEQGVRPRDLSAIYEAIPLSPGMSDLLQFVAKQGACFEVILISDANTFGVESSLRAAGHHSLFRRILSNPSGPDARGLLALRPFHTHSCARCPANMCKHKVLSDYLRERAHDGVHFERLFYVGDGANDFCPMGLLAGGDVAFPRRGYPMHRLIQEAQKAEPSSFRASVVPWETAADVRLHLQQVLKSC

PAMPA permeability = assay type: in vitro ADME
[1] = tested on: Cytochrome P450 2C19 (CYP2C19); conditions: ref PubChem database; cited from earlier work
PLAP = PLAP (Homo sapiens, UniProt P05187); assay: PLAP luminescent assay; assay type: biochemical
PLAP, sequence (P05187 23-506 limits assumed): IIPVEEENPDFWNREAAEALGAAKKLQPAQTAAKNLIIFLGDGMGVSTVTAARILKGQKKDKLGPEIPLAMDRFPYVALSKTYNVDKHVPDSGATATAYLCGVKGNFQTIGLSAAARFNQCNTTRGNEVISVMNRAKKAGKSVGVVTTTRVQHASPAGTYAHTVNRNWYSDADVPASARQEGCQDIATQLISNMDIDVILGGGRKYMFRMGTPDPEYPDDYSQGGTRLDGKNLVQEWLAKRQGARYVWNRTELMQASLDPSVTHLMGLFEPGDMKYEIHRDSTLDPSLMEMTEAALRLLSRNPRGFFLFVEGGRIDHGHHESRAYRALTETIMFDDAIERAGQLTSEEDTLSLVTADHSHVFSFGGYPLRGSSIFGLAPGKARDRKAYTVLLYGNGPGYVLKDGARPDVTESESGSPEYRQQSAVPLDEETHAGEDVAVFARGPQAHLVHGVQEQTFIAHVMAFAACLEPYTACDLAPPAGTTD

TNAP [2] = target: T2, TNAP (Homo sapiens, UniProt P05186); assay: TNAP luminescent assay; assay type: biochemical; conditions: relative to lead compound 1
T2 sequence (P05186 18-501 limits assumed): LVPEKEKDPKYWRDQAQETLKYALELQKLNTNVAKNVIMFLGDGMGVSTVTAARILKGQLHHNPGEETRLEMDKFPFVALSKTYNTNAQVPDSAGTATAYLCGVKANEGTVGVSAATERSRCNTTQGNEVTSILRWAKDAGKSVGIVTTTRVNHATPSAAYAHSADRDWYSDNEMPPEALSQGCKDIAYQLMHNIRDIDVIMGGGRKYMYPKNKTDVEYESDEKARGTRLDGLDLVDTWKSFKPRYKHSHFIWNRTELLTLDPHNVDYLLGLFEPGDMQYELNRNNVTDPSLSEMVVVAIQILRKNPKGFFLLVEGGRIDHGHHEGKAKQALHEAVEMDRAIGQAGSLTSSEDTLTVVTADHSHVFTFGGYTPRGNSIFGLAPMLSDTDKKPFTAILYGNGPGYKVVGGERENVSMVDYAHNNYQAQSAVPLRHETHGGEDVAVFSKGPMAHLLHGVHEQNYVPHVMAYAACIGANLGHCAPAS

TNAP [3] = target: T2, TNAP; conditions: cited from earlier work

| Compound | PAMPA (% FLUX) (PAMPA permeability) | TNAP inhibitory activity (in words) (TNAP [2]) | other results |
| --- | --- | --- | --- |
| COc1cccc(S(=O)(=O)Nc2cnc3ccccc3c2)c1 [Compound 15, 3-Methoxy-N-(quinolin-3-yl)benzenesulfonamide] |  | dramatic loss of activity |  |
| COc1ccc(OC)c(CNc2cnc3ccccc3c2)c1 [Compound 17] |  | abolished the inhibitory activity |  |
| COc1ccc(Br)cc1S(=O)(=O)Nc1cnc2ccccc2c1 [Compound 18, 5-Bromo-2-methoxy-N-(quinolin-3-yl)benzenesulfonamide] | 54 % FLUX |  |  |
| NC(N)=NCCCC[C@H](N)C(=O)O [L-homoarginine] |  |  | Mode of inhibition versus phosphate-donor substrate (TNAP [3]): uncompetitive |
| c1ccc([C@H]2CN3CCSC3=N2)cc1 [levamisole] |  |  | Mode of inhibition versus phosphate-donor substrate (TNAP [3]): uncompetitive |

Further lines, with some results ahead:

| PAMPA (% FLUX) (PAMPA permeability) | TNAP inhibitory activity (in words) (TNAP [2]) | Compound | other results |
| --- | --- | --- | --- |
| 58 % FLUX |  | COc1ccc(OC)c(S(=O)(=O)Nc2cnc3ccccc3c2)c1 [Compound 1, 2,5-Dimethoxy-N-(quinolin-3-yl)benzenesulfonamide] | inhibition at 10 µM (PHOSPHO1): < 7.4%; Activity in Cytochrome P450 2C19 assay [1]: showed activity; pIC50 (PLAP): < 4.00 |
|  | loss of activity | COc1ccc(OC)c(S(=O)(=O)Nc2ccc3ccccc3c2)c1 [Compound 12, 2,5-Dimethoxy-N-(naphthalen-2-yl)benzenesulfonamide] |  |
|  | loss of activity | COc1ccc(OC)c(S(=O)(=O)Nc2ccc3ncccc3c2)c1 [Compound 13, 2,5-Dimethoxy-N-(quinolin-6-yl)benzenesulfonamide] |  |
|  | abolished the inhibitory activity | COc1ccc(OC)c(NS(=O)(=O)c2cnc3ccccc3c2)c1 [Compound 16, N-(2,5-Dimethoxyphenyl)quinoline-3-sulfonamide] |  |
| 7 % FLUX |  | COc1ccc(C)cc1S(=O)(=O)Nc1cnc2ccccc2c1 [Compound 19, 2-Methoxy-5-methyl-N-(quinolin-3-yl)benzenesulfonamide] |  |
